ChEMBL document CHEMBL5620381, “Design, synthesis and antitubercular activity of novel N-(amino)piperazinyl benzothiazinones with improved safety” (Eur J Med Chem, 2023)
Converted amounts (≈) assume the structure as drawn.

Tests used:
[1] = system: Mycobacterium tuberculosis; assay: Antitubercular activity against Mycobacterium tuberculosis H37Rv […] incubated for 8 days by MABA; assay type: functional; settings: 192 h, time 8 day
[2] = Selectivity index, ratio of CC50 for human THP-1 cells to MIC for Mycobacterium tuberculosis H37Rv […]; assay type: toxicity; settings: read-out: Selectivity Index
[3] = Cytotoxicity against human THP-1 cells incubated for 48 hrs by MTS/PMS assay; assay type: toxicity, cell-based
[4] = Half-life in ICR mouse at 25 mg/kg, po measured upto 24 hrs by HPLC analysis; assay type: ADME, organism-based; settings: in vivo
[5] = Mean residence time in ICR mouse at 25 mg/kg, po measured upto 24 hrs by HPLC analysis; assay type: ADME, organism-based; settings: in vivo
[6] = Toxicity in po dosed ICR mouse administered as single dose and measured for 7 days; assay type: organism-based; settings: in vivo, time 7 day
[7] = Toxicity in ICR mouse assessed as increase in body weight at 500 mg/kg, po administered as single dose and measured for 7 days; assay type: organism-based; settings: in vivo, 168 h, time 7 day
[8] = Tmax in ICR mouse at 25 mg/kg, po measured upto 24 hrs by HPLC analysis; assay type: ADME, organism-based; settings: in vivo
[9] = Toxicity in ICR mouse assessed as animal death at 500 mg/kg, po administered as single dose and measured for 7 days; assay type: organism-based; settings: in vivo, 168 h, time 7 day
[10] = AUC(0 to infinity) in ICR mouse at 25 mg/kg, po measured upto 24 hrs by HPLC analysis; assay type: ADME, organism-based; settings: in vivo
[11] = target: hERG (KCNH2) (Homo sapiens, UniProt Q12809); assay: Inhibition of human ERG expressed in HEK293 cells at 10 uM by whole cell patch clamp assay relative to control; assay type: toxicity, cell-based; settings: HEK293 cells expressing human ERG
[12] = Cmax in ICR mouse at 25 mg/kg, po measured upto 24 hrs by HPLC analysis; assay type: ADME, organism-based; settings: in vivo
[13] = Toxicity in ICR mouse assessed as depression at 500 mg/kg, po administered as single dose and measured after 3 to 7 days; assay type: organism-based; settings: in vivo, time 3-7 day
[14] = Toxicity in ICR mouse assessed as depression at 500 mg/kg, po administered as single dose and measured on next day; assay type: organism-based; settings: in vivo, 24 h, time 1 day

Chain of hERG (KCNH2) (Q12809 whole entry): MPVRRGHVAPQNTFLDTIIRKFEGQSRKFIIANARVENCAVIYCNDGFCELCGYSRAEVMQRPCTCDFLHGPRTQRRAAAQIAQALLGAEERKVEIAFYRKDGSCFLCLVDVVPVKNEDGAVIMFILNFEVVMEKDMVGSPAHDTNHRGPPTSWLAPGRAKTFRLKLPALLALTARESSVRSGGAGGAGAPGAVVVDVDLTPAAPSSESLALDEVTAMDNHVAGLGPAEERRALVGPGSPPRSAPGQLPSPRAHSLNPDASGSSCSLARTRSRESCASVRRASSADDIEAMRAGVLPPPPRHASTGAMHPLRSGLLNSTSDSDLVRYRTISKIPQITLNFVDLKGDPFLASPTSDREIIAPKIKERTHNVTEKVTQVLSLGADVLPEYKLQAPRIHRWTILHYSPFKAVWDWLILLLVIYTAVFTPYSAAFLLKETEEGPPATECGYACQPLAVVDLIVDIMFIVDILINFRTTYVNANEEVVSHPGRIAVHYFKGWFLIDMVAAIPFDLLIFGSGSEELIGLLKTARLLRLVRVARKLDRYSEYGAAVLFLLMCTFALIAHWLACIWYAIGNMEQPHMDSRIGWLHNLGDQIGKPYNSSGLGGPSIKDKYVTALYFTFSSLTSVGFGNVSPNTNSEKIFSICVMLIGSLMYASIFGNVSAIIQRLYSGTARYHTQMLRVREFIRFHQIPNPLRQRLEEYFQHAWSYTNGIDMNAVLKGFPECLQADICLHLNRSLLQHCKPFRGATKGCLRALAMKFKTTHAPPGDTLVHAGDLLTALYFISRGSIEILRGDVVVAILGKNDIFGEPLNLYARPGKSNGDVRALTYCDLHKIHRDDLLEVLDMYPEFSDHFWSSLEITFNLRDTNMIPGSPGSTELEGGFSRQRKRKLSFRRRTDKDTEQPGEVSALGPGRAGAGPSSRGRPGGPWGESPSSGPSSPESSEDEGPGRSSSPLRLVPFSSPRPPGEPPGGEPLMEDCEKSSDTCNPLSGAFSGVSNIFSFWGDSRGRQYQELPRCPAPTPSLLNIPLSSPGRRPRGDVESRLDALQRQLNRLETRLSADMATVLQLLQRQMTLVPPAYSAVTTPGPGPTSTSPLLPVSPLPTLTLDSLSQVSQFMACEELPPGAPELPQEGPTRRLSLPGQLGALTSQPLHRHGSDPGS

SMILES	MIC [1] [µg/mL]	selectivity ratio [2]	CC50 at 48 h [3] [µg/mL]	inhibition at 10 µM [11] [%]	further results
O=c1nc(N2CCN(NC3CCCCC3)CC2)sc2c([N+](=O)[O-])cc(C(F)(F)F)cc12	< 0.001	> 4200	> 64		
CON=C1CCC(N(C)N2CCN(c3nc(=O)c4cc(C(F)(F)F)cc([N+](=O)[O-])c4s3)CC2)CC1 (centres undefined)	< 0.001	> 4200	> 64		
O=c1nc(N2CCN(NC3CCCCCCC3)CC2)sc2c([N+](=O)[O-])cc(C(F)(F)F)cc12	< 0.001	> 4200	46.9 (≈ 96.7 µM)		
CN(C1CCC(C)(C)CC1)N1CCN(c2nc(=O)c3cc(C(F)(F)F)cc([N+](=O)[O-])c3s2)CC1	< 0.001	> 4200	> 64	6.1	half-life [4]: 5.07 h; MRT [5]: 3.91 h; LD50 at 168 h [6]: > 500 mg/kg; Activity [7]: Toxic; Tmax [8]: 0.5 h; Activity [9]: Non-Toxic; AUC(0-inf) [10]: 1190 ng·h/mL; Cmax [12]: 501 ng/mL
CN(C1C2CC3CC(C2)CC1C3)N1CCN(c2nc(=O)c3cc(C(F)(F)F)cc([N+](=O)[O-])c3s2)CC1 (centres undefined)	0.0025 (≈ 0.00477 µM)	> 4200	> 64		
CC1CC(N(C)N2CCN(c3nc(=O)c4cc(C(F)(F)F)cc([N+](=O)[O-])c4s3)CC2)CC(C)(C)C1 (centres undefined)	< 0.001	> 4200	> 64		
CON=C1CCC(N(C)N2CCN(c3nc(=O)c4cc(C(F)(F)F)cc([N+](=O)[O-])c4s3)CC2(C)C)CC1 (centres undefined)	0.0631 (≈ 0.116 µM)	> 4200	4.91 (≈ 9.05 µM)		
CN(C1CCC2(CCCCC2)CC1)N1CCN(c2nc(=O)c3cc(C(F)(F)F)cc([N+](=O)[O-])c3s2)CC1	< 0.001	> 4200	51.9 (≈ 96.2 µM)		
CC1CCC(C)C(N(C)N2CCN(c3nc(=O)c4cc(C(F)(F)F)cc([N+](=O)[O-])c4s3)CC2)C1 (centres undefined)	< 0.001	> 4200	> 64		
CN(C1CCCCC1)N1CCN(c2nc(=O)c3cc(C(F)(F)F)cc([N+](=O)[O-])c3s2)CC1	< 0.001	> 4200	> 64	27.3	
CN(C1CCC(C)(C)CC1)N1CCN(c2nc(=O)c3cc(C(F)(F)F)cc([N+](=O)[O-])c3s2)CC1(C)C	< 0.001	> 4200	> 64	18.1	Activity [13]: Non-Toxic; LD50 at 168 h [6]: > 500 mg/kg; Activity [7]: Toxic; Activity [9]: Non-Toxic; Activity [14]: Toxic
CN(C1CCCCC1)N1CCN(c2nc(=O)c3cc(C(F)(F)F)cc([N+](=O)[O-])c3s2)CC1(C)C	0.0015 (≈ 0.003 µM)	> 4200	> 64	45.7	
CC1CCC(N(C)N2CCN(c3nc(=O)c4cc(C(F)(F)F)cc([N+](=O)[O-])c4s3)CC2)CC1 (centres undefined)	< 0.001	> 4200	> 64	32.7	
CN(C1CCCCCCC1)N1CCN(c2nc(=O)c3cc(C(F)(F)F)cc([N+](=O)[O-])c3s2)CC1	< 0.001	> 4200	> 64		
CC1(C)CCC(NN2CCN(c3nc(=O)c4cc(C(F)(F)F)cc([N+](=O)[O-])c4s3)CC2)CC1	< 0.001	> 4200	58.1 (≈ 120 µM)	19.9	half-life [4]: 1.23 h; MRT [5]: 1.63 h; LD50 at 168 h [6]: > 500 mg/kg; Activity [7]: Toxic; Tmax [8]: 0.25 h; Activity [9]: Non-Toxic; AUC(0-inf) [10]: 971 ng·h/mL; Cmax [12]: 755 ng/mL
CN(C1CCC(=NOC(C)(C)C)CC1)N1CCN(c2nc(=O)c3cc(C(F)(F)F)cc([N+](=O)[O-])c3s2)CC1 (centres undefined)	0.00721 (≈ 0.013 µM)	> 4200	> 64		
O=c1nc(N2CCN(NC3CCC(F)(F)CC3)CC2)sc2c([N+](=O)[O-])cc(C(F)(F)F)cc12	0.00311 (≈ 0.0063 µM)	> 4200	> 64	46.8	
CC1CCCCC1NN1CCN(c2nc(=O)c3cc(C(F)(F)F)cc([N+](=O)[O-])c3s2)CC1 (centres undefined)	0.0014 (≈ 0.00297 µM)	> 4200	48.7 (≈ 103 µM)		
CON=C1CCC(N(C)N2CCN(c3nc(=O)c4cc(C(F)(F)F)cc([N+](=O)[O-])c4s3)CC2C)CC1 (centres undefined)	0.0143 (≈ 0.0271 µM)	> 4200	12.3 (≈ 23.3 µM)	23.1	
CN(C1CCC(F)(F)CC1)N1CCN(c2nc(=O)c3cc(C(F)(F)F)cc([N+](=O)[O-])c3s2)CC1	< 0.001	> 4200	> 64		
CCON=C1CCC(N(C)N2CCN(c3nc(=O)c4cc(C(F)(F)F)cc([N+](=O)[O-])c4s3)CC2)CC1 (centres undefined)	0.0118 (≈ 0.0223 µM)	> 4200	50.1 (≈ 94.8 µM)		
CC1CN(c2nc(=O)c3cc(C(F)(F)F)cc([N+](=O)[O-])c3s2)CCN1N(C)C1CCC(C)(C)CC1 (centres undefined)	< 0.001	> 4200	> 64	35.5	Activity [13]: Non-Toxic; LD50 at 168 h [6]: > 500 mg/kg; Activity [7]: Toxic; Activity [9]: Non-Toxic; Activity [14]: Toxic
CC1CCC(NN2CCN(c3nc(=O)c4cc(C(F)(F)F)cc([N+](=O)[O-])c4s3)CC2)CC1 (centres undefined)	< 0.001	> 4200	> 64		
CC1CN(c2nc(=O)c3cc(C(F)(F)F)cc([N+](=O)[O-])c3s2)CCN1N(C)C1CCCCC1 (centres undefined)	< 0.001	> 4200	> 64		
CC1CCCCC1N(C)N1CCN(c2nc(=O)c3cc(C(F)(F)F)cc([N+](=O)[O-])c3s2)CC1 (centres undefined)	0.00135 (≈ 0.00278 µM)	> 4200	> 64		
CN(CC1CCC(F)(F)CC1)N1CCN(c2nc(=O)c3cc(C(F)(F)F)cc([N+](=O)[O-])c3s2)CC1	< 0.001	> 4200	> 64		
NNC(=O)c1ccncc1 [ISONIAZID]	0.0374 (≈ 0.273 µM)		> 64		
O=c1nc(N2CCN(CC3CCCCC3)CC2)sc2c([N+](=O)[O-])cc(C(F)(F)F)cc12 [MACOZINONE]	< 0.001		> 64		
CO[C@H]1/C=C/O[C@@]2(C)Oc3c(C)c(O)c4c(O)c(c(/C=N/N5CCN(C)CC5)c(O)c4c3C2=O)NC(=O)/C(C)=C\C=C\[C@H](C)[C@H](O)[C@@H](C)[C@@H](O)[C@@H](C)[C@H](OC(C)=O)[C@@H]1C [RIFAMPIN]	0.019 (≈ 0.0231 µM)		> 64		
